Measured values as given in patent EP0178388A1, “Quinolinecarboxylic acid derivatives” (KYORIN PHARMACEUTICAL CO., LTD., priority 1984, dated 1986).
Values after ≈ are worked out from the molar mass of the structure shown. Structures can show the parent of a compound that is named as a salt. Where two headings read alike, the source gives them in different places.

What was measured:
S. pyogenes IID 692 = experiment: In vitro antibacterial activity, MIC (standard strain); format: cell-based; settings: Streptococcus pyogenes, IID692, S. pyogenes IID 692, 10^6 cells/ml
S. pneumoniae IID 552 = experiment: as above; format: cell-based; settings: Streptococcus pneumoniae, IID552, S. pneumoniae IID 552, 10^6 cells/ml
E. coli ATCC 10536 = experiment: as above; format: cell-based; settings: Escherichia coli, ATCC10536
[1] = tested on: Klebsiella pneumoniae I-220S; experiment: as above; format: cell-based; settings: I220S; Klebsiella pneumoniae I-220S, 10^6 cells/ml, standard strain; read-out: MIC
K. pneumoniae KY(GN)6445 = experiment: as above; format: cell-based; settings: Klebsiella pneumoniae
[2] = tested on: Citrobacter freundii IID 976; experiment: as above; format: cell-based; settings: IID976
Shigella sonnei IID 969 = experiment: as above; format: cell-based; settings: IID969, Shigella sonnei IID 969, 10^6 cells/ml
Description: (§1) The in vitro antibacterial activity has been investigated, the minimun inhibitory concentration (MIC) was determined in accordance with the method recommended by Japan Society of Chemotherapy.

[3] = tested on: Alcaligenes faecalis 0114002; experiment: as above; format: cell-based; settings: Alcaligenes faecalis 0114002, 10^6 cells/ml
B. fragilis 0558 = experiment: as above; format: cell-based; settings: Bacteroides fragilis; B. fragilis 0558, 10^6 cells/ml, standard strain; read-out: MIC
[4] = tested on: F. varium KYA (ATCC) 8501; experiment: as above; format: cell-based; settings: Fusobacterium varium, F. varium KYA (ATCC) 8501, 10^6 cells/ml
Pst. micros UPI 5464-1 = experiment: as above; format: cell-based; settings: Parvimonas micra, UPI54641, Pst. micros UPI 5464-1, 10^6 cells/ml
S. pneumoniae 2950 = experiment: In vitro antibacterial activity, MIC (clinical isolates); format: cell-based; settings: Streptococcus pneumoniae; S. pneumoniae 2950, 10^6 cells/ml, clinical isolate
S. pyogenes 3102 = experiment: as above; format: cell-based; settings: Streptococcus pyogenes; S. pyogenes 3102, 10^6 cells/ml, clinical isolate
S. pyogenes 3107 = experiment: as above; format: cell-based; settings: Streptococcus pyogenes; S. pyogenes 3107, 10^6 cells/ml, clinical isolate
S. pyogenes 4372 = experiment: as above; format: cell-based; settings: Streptococcus pyogenes; S. pyogenes 4372, 10^6 cells/ml, clinical isolate
S. agalactiae 4342 = experiment: as above; format: cell-based; settings: Streptococcus agalactiae; S. agalactiae 4342, 10^6 cells/ml, clinical isolate
S. agalactiae 4468 = experiment: as above; format: cell-based; settings: Streptococcus agalactiae; S. agalactiae 4468, 10^6 cells/ml, clinical isolate
S. faecalis 49 = experiment: as above; format: cell-based; settings: Enterococcus faecalis; S. faecalis 49, 10^6 cells/ml, clinical isolate
S. faecalis 401 = experiment: as above; format: cell-based; settings: Enterococcus faecalis; S. faecalis 401, 10^6 cells/ml, clinical isolate
S. faecalis 402 = experiment: as above; format: cell-based; settings: Enterococcus faecalis; S. faecalis 402, 10^6 cells/ml, clinical isolate
E. coli ML4707 [5] = experiment: MIC against the infecting strain (Table 2); format: cell-based; settings: Escherichia coli; E. coli ML4707 (Table 2, parts 1 and 2)
Description: as §1

E. coli ML4707 [6] = experiment: In vivo antibacterial activity against systemic infection in mice; settings: Escherichia coli, ML4707, po, 1 h, E. coli ML4707, mice (ICR-S), intraperitoneal infection, oral at 1 hour after infection, read-out: ED50
Description: (§2) Experiment 2 In vivo antibacterial activity against systemic infection in mice (ICR-S)
(§3) The infections were produced by intraperitoneal infection of a suspension of the bacterial culture corresponding to the germ studied. The product was administered orally at 1 hour after the infection. The 50% effective dose (ED50) which protects 50% of the animals from death caused by the infection was determined from the relation between dosage and survival rate.

[7] = tested on: Fusobacterium necrophorum S-45; experiment: In vitro antibacterial activity, MIC (standard strain); format: cell-based; settings: S45, Fusobacterium necrophorum S-45, 10^6 cells/ml
[8] = tested on: Eubacterium lentum GAI 5242; experiment: as above; format: cell-based; settings: Eggerthella lenta, GAI5242, Eubacterium lentum GAI 5242, 10^6 cells/ml
[9] = tested on: Peptococcus magnus KY 017; experiment: as above; format: cell-based; settings: Finegoldia magna, KY017, Peptococcus magnus KY 017, 10^6 cells/ml
C. ramosum = experiment: as above; format: cell-based; settings: Thomasclavelia ramosa; C. ramosum, 10^6 cells/ml, standard strain; read-out: MIC
P. aeruginosa IID 1210 [10] = experiment: MIC against the infecting strain (Table 2); format: cell-based; settings: Pseudomonas aeruginosa, IID1210; P. aeruginosa IID 1210 (Table 2, part 3)
S. aureus Smith [11] = experiment: MIC against the infecting strain (Table 2); format: cell-based; settings: Staphylococcus aureus; S. aureus Smith (Table 2, part 5)
P. aeruginosa IID 1210 [12] = experiment: In vivo antibacterial activity against systemic infection in mice; parameters: species or system mice (ICR-S); settings: Pseudomonas aeruginosa, IID1210; P. aeruginosa IID 1210, mice (ICR-S), intraperitoneal infection, oral at 1 hour after infection, challenge dose 2.5 x 10^5 cfu/mouse; read-out: ED50
Description: as §2, §3

S. aureus Smith [13] = experiment: as above; parameters: species or system mice (ICR-S); settings: Staphylococcus aureus; S. aureus Smith, mice (ICR-S), intraperitoneal infection, oral at 1 hour after infection, challenge dose 3.5 x 10^5 cfu/mouse; read-out: ED50
Description: as §2, §3

[14] = challenge dose 8.3 x 10^6 cfu/mouse (part 2)

Compound	MIC (S. pyogenes IID 692) [µg/mL]	MIC (S. pneumoniae IID 552) [µg/mL]	MIC [1] [µg/mL]	MIC (Shigella sonnei IID 969) [µg/mL]	MIC [3] [µg/mL]	MIC (B. fragilis 0558) [µg/mL]	MIC [4] [µg/mL]	MIC (Pst. micros UPI 5464-1) [µg/mL]	MIC (S. pneumoniae 2950) [µg/mL]	MIC (S. pyogenes 3102) [µg/mL]	MIC (S. pyogenes 3107) [µg/mL]	MIC (S. pyogenes 4372) [µg/mL]	MIC (S. agalactiae 4342) [µg/mL]	MIC (S. agalactiae 4468) [µg/mL]	MIC (S. faecalis 49) [µg/mL]	MIC (S. faecalis 401) [µg/mL]	MIC (S. faecalis 402) [µg/mL]	MIC (E. coli ML4707 [5]) [µg/mL]	ED50 (E. coli ML4707 [6]; [14]) [mg/kg]	also measured
CC1CN(c2c(F)cc3c(=O)c(C(=O)O)cn(C4CC4)c3c2F)CCN1 (stereo not drawn) [Example 2, l-Cyclopropyl-6,8-difluoro-l,4-dihydro-7-(3-methyl-l-piperazinyl)-4-oxoquinoline-3-carboxylic acid]	0.78 (≈ 2.15 µM)	0.78 (≈ 2.15 µM)	0.05 (≈ 0.138 µM)	0.0125 (≈ 0.0344 µM)	0.2 (≈ 0.55 µM)	0.78 (≈ 2.15 µM)	6.25 (≈ 17.2 µM)	0.2 (≈ 0.55 µM)	1.56 (≈ 4.29 µM)	0.78 (≈ 2.15 µM)	0.78 (≈ 2.15 µM)	0.78 (≈ 2.15 µM)	0.78 (≈ 2.15 µM)	0.78 (≈ 2.15 µM)	0.78 (≈ 2.15 µM)	1.56 (≈ 4.29 µM)	1.56 (≈ 4.29 µM)	0.0125 (≈ 0.0344 µM)	0.17	MIC (E. coli ATCC 10536; E. coli ATCC 10536, 10^6 cells/ml, standard strain, read-out: MIC): ≤ 0.006 µg/mL; MIC (K. pneumoniae KY(GN)6445): 0.0125 µg/mL (≈ 0.0344 µM); MIC ([2]; Citrobacter freundii): 0.0125 µg/mL (≈ 0.0344 µM); ED50 (E. coli ML4707 [6]; challenge dose 6.0 x 10^6 cfu/mouse (part 1)): 0.09 mg/kg
CC1CN(c2c(F)cc3c(=O)c(C(=O)O)cn(C4CC4)c3c2Cl)CCN1 (stereo not drawn) [Example 5, 8-Chloro-l-cyclopropyl-6-fluoro-1,4-dihydro-7-(3-methyl-1-piperazinyl)-4-oxoquinoline-3-carboxylic acid hydrochloride]	0.78	0.78	0.05	0.0125	0.39	0.2	3.13	0.2	0.78	0.39	0.39	0.39	0.78	0.39	0.78	0.78	0.78	0.0125	0.12	MIC (E. coli ATCC 10536): 0.0125 µg/mL; MIC (K. pneumoniae KY(GN)6445; K. pneumoniae KY(GN)6445, 10^6 cells/ml, standard strain, read-out: MIC): 0.025 µg/mL; MIC ([2]; Citrobacter freundii IID 976, 10^6 cells/ml, standard strain, read-out: MIC): 0.025 µg/mL; MIC [7]: 0.39 µg/mL; MIC [8]: 0.39 µg/mL; MIC [9]: 0.1 µg/mL; MIC (C. ramosum): 3.13 µg/mL; MIC (P. aeruginosa IID 1210 [10]): 0.78 µg/mL; MIC (S. aureus Smith [11]): 0.1 µg/mL; ED50 (P. aeruginosa IID 1210 [12]): 3.2 mg/kg; ED50 (S. aureus Smith [13]): 0.89 mg/kg
